Data as given in the NIST ThermoML archive (doi:10.1016/j.jct.2015.09.020).

Test: mn = molality of the nth substance listed, in mol/kg
Settings: 101.3 kPa, Liquid

Cl.NCC(=O)O [glycine hydrochloride] + O
Settings | speed of sound [m/s]
278.15 K, Frequency=2 MHz, Linear variable-path acoustic interferometer, m1 = 0.0508 | 1430.8
278.15 K, Frequency=2 MHz, Linear variable-path acoustic interferometer, m1 = 0.0811 | 1433.6
278.15 K, Frequency=2 MHz, Linear variable-path acoustic interferometer, m1 = 0.1008 | 1435
278.15 K, Frequency=2 MHz, Linear variable-path acoustic interferometer, m1 = 0.1202 | 1436.2
278.15 K, Frequency=2 MHz, Linear variable-path acoustic interferometer, m1 = 0.1499 | 1438.3
278.15 K, Frequency=2 MHz, Linear variable-path acoustic interferometer, m1 = 0.1801 | 1441.1
278.15 K, Frequency=2 MHz, Linear variable-path acoustic interferometer, m1 = 0.2112 | 1443.2
278.15 K, Frequency=2 MHz, Linear variable-path acoustic interferometer, m1 = 0.2325 | 1445.3
278.15 K, Frequency=2 MHz, Linear variable-path acoustic interferometer, m1 = 0.2472 | 1445.9
278.15 K, Frequency=2 MHz, Linear variable-path acoustic interferometer, m1 = 0.2732 | 1448
278.15 K, Frequency=2 MHz, Linear variable-path acoustic interferometer, m1 = 0.2995 | 1449.7
278.15 K, Frequency=2 MHz, Linear variable-path acoustic interferometer, m1 = 0.3208 | 1451.3
278.15 K, Frequency=2 MHz, Linear variable-path acoustic interferometer, m1 = 0.3529 | 1454.1
288.15 K, Frequency=3 MHz, Sing-around technique in a fixed-path interferometer, m1 = 0.05 | 1469.8
288.15 K, Frequency=3 MHz, Sing-around technique in a fixed-path interferometer, m1 = 0.0802 | 1471.7
288.15 K, Frequency=3 MHz, Sing-around technique in a fixed-path interferometer, m1 = 0.1002 | 1473.1
288.15 K, Frequency=3 MHz, Sing-around technique in a fixed-path interferometer, m1 = 0.1216 | 1474.5
288.15 K, Frequency=3 MHz, Sing-around technique in a fixed-path interferometer, m1 = 0.1506 | 1476.6
288.15 K, Frequency=3 MHz, Sing-around technique in a fixed-path interferometer, m1 = 0.1821 | 1479
288.15 K, Frequency=3 MHz, Sing-around technique in a fixed-path interferometer, m1 = 0.21 | 1480.8
288.15 K, Frequency=3 MHz, Sing-around technique in a fixed-path interferometer, m1 = 0.2318 | 1482.2
288.15 K, Frequency=3 MHz, Sing-around technique in a fixed-path interferometer, m1 = 0.2508 | 1483.4
288.15 K, Frequency=3 MHz, Sing-around technique in a fixed-path interferometer, m1 = 0.2723 | 1484.8
288.15 K, Frequency=3 MHz, Sing-around technique in a fixed-path interferometer, m1 = 0.3012 | 1486.4
288.15 K, Frequency=3 MHz, Sing-around technique in a fixed-path interferometer, m1 = 0.3205 | 1488.1
288.15 K, Frequency=3 MHz, Sing-around technique in a fixed-path interferometer, m1 = 0.3534 | 1489.9
298.15 K, Frequency=3 MHz, Sing-around technique in a fixed-path interferometer, m1 = 0.0515 | 1500
298.15 K, Frequency=3 MHz, Sing-around technique in a fixed-path interferometer, m1 = 0.0839 | 1502
298.15 K, Frequency=3 MHz, Sing-around technique in a fixed-path interferometer, m1 = 0.1035 | 1503.3
298.15 K, Frequency=3 MHz, Sing-around technique in a fixed-path interferometer, m1 = 0.1305 | 1504.9
298.15 K, Frequency=3 MHz, Sing-around technique in a fixed-path interferometer, m1 = 0.1453 | 1505.9
298.15 K, Frequency=3 MHz, Sing-around technique in a fixed-path interferometer, m1 = 0.185 | 1508.2
298.15 K, Frequency=3 MHz, Sing-around technique in a fixed-path interferometer, m1 = 0.2073 | 1509.4
298.15 K, Frequency=3 MHz, Sing-around technique in a fixed-path interferometer, m1 = 0.2401 | 1511.3
298.15 K, Frequency=3 MHz, Sing-around technique in a fixed-path interferometer, m1 = 0.2727 | 1513.2
298.15 K, Frequency=3 MHz, Sing-around technique in a fixed-path interferometer, m1 = 0.3029 | 1514.9
298.15 K, Frequency=3 MHz, Sing-around technique in a fixed-path interferometer, m1 = 0.3177 | 1515.8
298.15 K, Frequency=3 MHz, Sing-around technique in a fixed-path interferometer, m1 = 0.3535 | 1517.9

Settings | mass density [kg/m3]
278.15 K, Pycnometric method, m1 = 0.0508 | 1002.4
278.15 K, Pycnometric method, m1 = 0.0811 | 1003.61
278.15 K, Pycnometric method, m1 = 0.1008 | 1004.87
278.15 K, Pycnometric method, m1 = 0.1202 | 1005.41
278.15 K, Pycnometric method, m1 = 0.1499 | 1006.88
278.15 K, Pycnometric method, m1 = 0.1801 | 1008.05
278.15 K, Pycnometric method, m1 = 0.2112 | 1009.37
278.15 K, Pycnometric method, m1 = 0.2325 | 1010.42
278.15 K, Pycnometric method, m1 = 0.2472 | 1011.07
278.15 K, Pycnometric method, m1 = 0.2732 | 1012.17
278.15 K, Pycnometric method, m1 = 0.2995 | 1013.21
278.15 K, Pycnometric method, m1 = 0.3208 | 1014.01
278.15 K, Pycnometric method, m1 = 0.3529 | 1015.11
288.15 K, Vibrating tube method, m1 = 0.05 | 1001.39
288.15 K, Vibrating tube method, m1 = 0.0802 | 1002.72
288.15 K, Vibrating tube method, m1 = 0.1002 | 1003.61
288.15 K, Vibrating tube method, m1 = 0.1216 | 1004.54
288.15 K, Vibrating tube method, m1 = 0.1506 | 1005.74
288.15 K, Vibrating tube method, m1 = 0.1821 | 1007.14
288.15 K, Vibrating tube method, m1 = 0.21 | 1008.37
288.15 K, Vibrating tube method, m1 = 0.2318 | 1009.27
288.15 K, Vibrating tube method, m1 = 0.2508 | 1010.04
288.15 K, Vibrating tube method, m1 = 0.2723 | 1010.95
288.15 K, Vibrating tube method, m1 = 0.3012 | 1012.17
288.15 K, Vibrating tube method, m1 = 0.3205 | 1012.97
288.15 K, Vibrating tube method, m1 = 0.3534 | 1014.37
298.15 K, Vibrating tube method, m1 = 0.0839 | 1000.75
298.15 K, Vibrating tube method, m1 = 0.1035 | 1001.57
298.15 K, Vibrating tube method, m1 = 0.1305 | 1002.87
298.15 K, Vibrating tube method, m1 = 0.1453 | 1003.51
298.15 K, Vibrating tube method, m1 = 0.185 | 1005.13
298.15 K, Vibrating tube method, m1 = 0.2073 | 1005.96
298.15 K, Vibrating tube method, m1 = 0.2401 | 1007.29
298.15 K, Vibrating tube method, m1 = 0.2727 | 1008.59
298.15 K, Vibrating tube method, m1 = 0.3029 | 1009.81
298.15 K, Vibrating tube method, m1 = 0.3177 | 1010.44
298.15 K, Vibrating tube method, m1 = 0.3535 | 1011.84
